According to patent US6355799B1, “Substituted benzene compounds, process for their preparation, and herbicidal and defoliant compositions containing them” (ISK Americas Incorporated, priority 1997, dated 2002):

Tests used:
Assay type in all cases: in vivo
[1] = test system: field corn (Zea mays L., var. Dekalb 535, CORN); assay: Post-emerge test, crop safety; details: phytotoxicity rating 0-100 (0 no damage, 100 complete death), 14 days after application
Method in brief: (§1)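 Rating: 0–100 visual injury, 14 DAA. Application: acetone, 187 l/ha, 15–1000 g ai/ha, flat-fan track sprayer with nozzle 40–45 cm above soil or canopy. Post-emerge runs used 0.25% v/v surfactant on 2–3 leaf plants.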

[2] = test system: upland rice (Oryza sp., var. Tebonnet, RICE); assay: Post-emerge test, crop safety; details: phytotoxicity rating 0-100 (0 no damage, 100 complete death), 14 days after application
Method in brief: as §1

[3] = test system: redroot pigweed (Amaranthus retroflexus, AMARE); assay: Pre-emerge test, greenhouse herbicide activity screening; details: pre-emerge, rated 14 days after application, 0 = no damage, 100 = complete death
Method in brief: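 Compounds in acetone were track-sprayed at 187 l/ha, 15–1000 g ai/ha, onto sandy loam pots. Pre-emerge seeds were sown one day before spraying, with surface watering afterwards. Post-emerge plants were at the 2–3 leaf stage and sprayed with 0.25% v/v non-ionic surfactant. Injury was rated 0–100 at 14 days.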

[4] = test system: velvetleaf (Abutilon theophrasti, ABUTH); assay: Post-emerge test, greenhouse herbicide activity screening; details: phytotoxicity rating 0-100 (0 no damage, 100 complete death), 14 days after application
Method in brief: (§2)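 Sandy loam pots; pre-emerge: sown 1 d pre-spray, surface-watered after, then bottom-watered. Post-emerge: sown 8–21 d before, 2–3 leaf stage, + 0.25% v/v NIS, bottom-watered. Acetone, 187 l/ha track spray, 15–1000 g ai/ha. 0–100 injury score, day 14.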

[5] = test system: ivyleaf morningglory (Ipomoea hederacea, IPOHE); assay: as above; details: phytotoxicity rating 0-100 (0 no damage, 100 complete death), 14 days after application
Method in brief: as §2

[6] = test system: lambsquarters (Chenopodium album, CHEAL); assay: as above; details: phytotoxicity rating 0-100 (0 no damage, 100 complete death), 14 days after application
Method in brief: as §2

[7] = test system: large crabgrass (Digitaria sanguinalis, DIGSA); assay: as above; details: phytotoxicity rating 0-100 (0 no damage, 100 complete death), 14 days after application
Method in brief: as §2

[8] = test system: green foxtail (Setaria viridis, SETVI); assay: as above; details: phytotoxicity rating 0-100 (0 no damage, 100 complete death), 14 days after application
Method in brief: as §2

[9] = test system: sicklepod (Cassia obtusifolia, CASOB); assay: as above; details: phytotoxicity rating 0-100 (0 no damage, 100 complete death), 14 days after application
Method in brief: as §2

[10] = test system: redroot pigweed (Amaranthus retroflexus, AMARE); assay: as above; details: phytotoxicity rating 0-100 (0 no damage, 100 complete death), 14 days after application
Method in brief: as §2

[11] = test system: common ragweed (Ambrosia artemisizfolia L., AMBEL); assay: as above; details: phytotoxicity rating 0-100 (0 no damage, 100 complete death), 14 days after application
Method in brief: as §2

[12] = test system: barnyardgrass (Echinochloa crus-galli, ECHCG); assay: as above; details: phytotoxicity rating 0-100 (0 no damage, 100 complete death), 14 days after application
Method in brief: as §2

[13] = test system: velvetleaf (Abutilon theophrasti, ABUTH); assay: Pre-emerge test, greenhouse herbicide activity screening; details: pre-emerge, rated 14 days after application, 0 = no damage, 100 = complete death
Method in brief: (§3)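 Compounds in acetone were track-sprayed at 15–1000 g ai/ha: pre-emergence onto soil sown the previous day, then top-watered to incorporate and later bottom-watered; post-emergence onto 2–3 leaf plants with 0.25% v/v surfactant, bottom-watered only. Ratings on a 0–100 phytotoxicity scale were taken at day 14.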

[14] = test system: ivyleaf morningglory (Ipomoea hederacea, IPOHE); assay: as above; details: pre-emerge, rated 14 days after application, 0 = no damage, 100 = complete death
Method in brief: as §3

[15] = test system: lambsquarters (Chenopodium album, CHEAL); assay: as above; details: pre-emerge, rated 14 days after application, 0 = no damage, 100 = complete death
Method in brief: as §3

[16] = test system: large crabgrass (Digitaria sanguinalis, DIGSA); assay: as above; details: pre-emerge, rated 14 days after application, 0 = no damage, 100 = complete death
Method in brief: as §3

[17] = test system: green foxtail (Setaria viridis, SETVI); assay: as above; details: pre-emerge, rated 14 days after application, 0 = no damage, 100 = complete death
Method in brief: as §3

[18] = test system: sicklepod (Cassia obtusifolia, CASOB); assay: as above; details: pre-emerge, rated 14 days after application, 0 = no damage, 100 = complete death
Method in brief: as §3

[19] = test system: johnsongrass (Sorghum halepense, SORHA); assay: as above; details: pre-emerge, rated 14 days after application, 0 = no damage, 100 = complete death
Method in brief: as §3

[20] = test system: common ragweed (Ambrosia artemisizfolia L., AMBEL); assay: as above; details: pre-emerge, rated 14 days after application, 0 = no damage, 100 = complete death
Method in brief: as §3

[21] = test system: barnyardgrass (Echinochloa crus-galli, ECHCG); assay: as above; details: pre-emerge, rated 14 days after application, 0 = no damage, 100 = complete death
Method in brief: as §3

[22] = test system: field corn (Zea mays L., var. Dekalb 535, CORN); assay: Pre-emerge test, crop safety; details: pre-emerge, rated 14 days after application, 0 = no damage, 100 = complete death
Method in brief: as §1

[23] = test system: upland rice (Oryza sp., var. Tebonnet, RICE); assay: Pre-emerge test, crop safety; details: pre-emerge, rated 14 days after application, 0 = no damage, 100 = complete death
Method in brief: as §1

Cn1c(C(F)(F)F)cc(=O)n(-c2c(N)cc(OC(F)F)cc2F)c1=O [Compound 1-51]
50: Pre-emerge Herbicidal Activity IPOHE (phytotoxicity rating, scale 0-100) ([14]; 63 g ai/ha) | Pre-emerge Herbicidal Activity ECHCG (phytotoxicity rating, scale 0-100) ([21]; 250 g ai/ha)
95: Post-emerge Herbicidal Activity IPOHE ([5]; 250 g ai/ha) | Post-emerge Herbicidal Activity CHEAL ([6]; 250 g ai/ha)
20: Post-emerge Herbicidal Activity CORN (crop damage) ([1]; 250 g ai/ha) | Post-emerge Herbicidal Activity DIGSA ([7]; 250 g ai/ha) | Pre-emerge Herbicidal Activity DIGSA (phytotoxicity rating, scale 0-100) ([16]; 63 g ai/ha)
80: Post-emerge Herbicidal Activity ABUTH ([4]; 250 g ai/ha) | Pre-emerge Herbicidal Activity IPOHE (phytotoxicity rating, scale 0-100) ([14]; 250 g ai/ha) | Pre-emerge Herbicidal Activity AMBEL (phytotoxicity rating, scale 0-100) ([20]; 250 g ai/ha)
40: Post-emerge Herbicidal Activity IPOHE ([5]; 63 g ai/ha) | Post-emerge Herbicidal Activity CASOB ([9]; 63 g ai/ha)
30: Post-emerge Herbicidal Activity RICE (crop damage) ([2]; 250 g ai/ha) | Post-emerge Herbicidal Activity CHEAL ([6]; 63 g ai/ha) | Post-emerge Herbicidal Activity SETVI ([8]; 250 g ai/ha) | Pre-emerge Herbicidal Activity SETVI (phytotoxicity rating, scale 0-100) ([17]; 63 g ai/ha) | Pre-emerge Herbicidal Activity CASOB (phytotoxicity rating, scale 0-100) ([18]; 250 g ai/ha) | Pre-emerge Herbicidal Activity AMBEL (phytotoxicity rating, scale 0-100) ([20]; 63 g ai/ha)
90: Pre-emerge Herbicidal Activity AMARE (phytotoxicity rating, scale 0-100) ([3]; 63 g ai/ha) | Post-emerge Herbicidal Activity AMBEL ([11]; 250 g ai/ha) | Pre-emerge Herbicidal Activity ABUTH (phytotoxicity rating, scale 0-100) ([13]; 63 g ai/ha) | Pre-emerge Herbicidal Activity CHEAL (phytotoxicity rating, scale 0-100) ([15]; 63 g ai/ha) | Pre-emerge Herbicidal Activity DIGSA (phytotoxicity rating, scale 0-100) ([16]; 250 g ai/ha) | Pre-emerge Herbicidal Activity SETVI (phytotoxicity rating, scale 0-100) ([17]; 250 g ai/ha)
0: Post-emerge Herbicidal Activity SETVI ([8]; 63 g ai/ha) | Post-emerge Herbicidal Activity ECHCG ([12]; 63 g ai/ha) | Pre-emerge Herbicidal Activity CASOB (phytotoxicity rating, scale 0-100) ([18]; 63 g ai/ha) | Pre-emerge Herbicidal Activity ECHCG (phytotoxicity rating, scale 0-100) ([21]; 63 g ai/ha) | Pre-emerge crop damage CORN (phytotoxicity rating, scale 0-100) ([22]; 63 g ai/ha)
10: Post-emerge Herbicidal Activity CORN (crop damage) ([1]; 63 g ai/ha) | Post-emerge Herbicidal Activity RICE (crop damage) ([2]; 63 g ai/ha) | Post-emerge Herbicidal Activity DIGSA ([7]; 63 g ai/ha) | Post-emerge Herbicidal Activity ECHCG ([12]; 250 g ai/ha) | Pre-emerge Herbicidal Activity SORHA (phytotoxicity rating, scale 0-100) ([19]; 63 g ai/ha) | Pre-emerge crop damage RICE (phytotoxicity rating, scale 0-100) ([23]; 63 g ai/ha)
60: Post-emerge Herbicidal Activity ABUTH ([4]; 63 g ai/ha) | Post-emerge Herbicidal Activity CASOB ([9]; 250 g ai/ha) | Pre-emerge Herbicidal Activity SORHA (phytotoxicity rating, scale 0-100) ([19]; 250 g ai/ha)
100: Pre-emerge Herbicidal Activity AMARE (phytotoxicity rating, scale 0-100) ([3]; 250 g ai/ha) | Pre-emerge Herbicidal Activity ABUTH (phytotoxicity rating, scale 0-100) ([13]; 250 g ai/ha) | Pre-emerge Herbicidal Activity CHEAL (phytotoxicity rating, scale 0-100) ([15]; 250 g ai/ha)
70: Post-emerge Herbicidal Activity AMARE ([10]; 63 g ai/ha) | Post-emerge Herbicidal Activity AMARE ([10]; 250 g ai/ha) | Post-emerge Herbicidal Activity AMBEL ([11]; 63 g ai/ha) | Pre-emerge crop damage CORN (phytotoxicity rating, scale 0-100) ([22]; 250 g ai/ha) | Pre-emerge crop damage RICE (phytotoxicity rating, scale 0-100) ([23]; 250 g ai/ha)
